Test results as given in patent US20190022220A1, “LIGHT-ACTIVATED ANCHORING OF THERAPEUTIC FACTORS TO TISSUES” (The Board of Trustees of the Leland Stanford Junior …, priority 2016, published 2019).
“Also recorded” adds a separate entry of the source.

Key:
[1] = test system: human mesenchymal stem cells (hMSCs); assay: Live-dead assay of hMSCs encapsulated in collagen gels formed with riboflavin and blue light; type: cell-based; details: 72 hours; riboflavin 0.25 mM or less; 20 sec blue light at 100 mW/cm^2; cells in collagen gel
Source text: A major clinical challenge is the delivery of cells, particularly stem cells, to an diseased or damaged area of the body. Currently, the stem cells are typically injected in suspension to an area without a specific or effective means to have them target and adhere to a particular location. Providing a immobilizing matrix and microenvironment in which to settle and grow while remaining immobilized to that are would be an advancement in the art. Cells can be encapsulated within a biomolecular gel according to the present invention. […] Using this method, hMSCs and other cell types can be encapsulated and positioned to a specific location in the body. For instance, a collagen gel encapsulating hMSCs can be formed and adhered in situ using blue light and riboflavin on the surface of a corneal wound, creating a “living reservoir” of therapeutic factors that are secreted by the immobilized hMSCs. The formed gel adheres to the target tissue due to crosslinks formed between the exogenously applied collagen and the collagen on the wound bed or target tissue which is shown by example in FIG. 9D.

[2] = test system: 2 mm corneal debridement wound; assay: Rodent corneal debridement wound healing and ocular tolerance study; type: in vivo
Description: FIGS. 13A-13D show results of EGF surface-coupling by V-CXL in a rodent corneal debridement animal model. A 2 mm corneal debridement was performed in three groups of two rodent eyes each (average corneal diameter=3 mm). Shown here are photographs of fluorescein-stained rodent eyes at 24 hours: EGF encapsulated within a collagen gel using riboflavin and blue light exposure for 5 seconds (FIG. 13A), EGF coupling directly to corneal stroma using riboflavin and blue light exposure for 5 seconds (FIG. 13B), topical EGF only (FIG. 13C), and no treatment (FIG. 13D). Slit lamp photos of the wounded and treated eyes are shown on the left, and fluorescein staining of the same eyes are shown on the right.
Mouse corneas were subject to 2 mm diameter circular corneal debridement and then treated with (1) a collagen gel solution containing 0.01 mg/ml of EGF, and 0.1 mg/ml riboflavin and exposed to blue light (˜458 nm) for 5 seconds, (2) an aqueous EGF solution containing 0.01 mg/ml EGF and 0.1 mg/ml riboflavin and exposed to blue light for 5 seconds, (3) topical application of an aqueous solution of EGF alone at a concentration of 0.01 mg/mL, or (4) no treatment. The rodents were then examined at 24 hours and the wound areas examined by fluorescein staining.
In vivo ocular tolerance and wound healing animal study: In an animal study in rodents, V-CXL was used to bind EGF to wounded corneas. Briefly, a 2 mm diameter debridement was performed, and the wound bed was treated topically with 0.025 mM of riboflavin mixed with 0.01 mg/mL of EGF delivered topically to the wound bed and allowed incubate for 10 minutes followed by 5 seconds of exposure to blue light (˜458 nm) at 60 mW/cm^2. The eye was then rinsed with BSS. Controls used were topical EGF alone and no treatment.

[3] = test system: primary rabbit corneal epithelial cells (CECs); assay: Proliferation of corneal epithelial cells on EGF-bound collagen surfaces; type: cell-based; details: over 5 days; EGF bound to collagen by V-CXL vs collagen without covalently linked EGF; both concentrations tested
Description: Enhanced cell proliferation on growth factor fortified collagen gels. Late-passage primary rabbit corneal epithelial cells (CECs) of the same cell density were grown on surfaces with EGF bound to collagen using V-CXL as well as standard collagen-coated tissue-culture polystyrene without covalently linked EGF.

[4] = EGF release from V-CXL collagen gels (ELISA); type: physicochemical; details: 37° C., 2 to 120 hours
Description: FIG. 9C summarizes the storage and loss modulus of collagen gels crosslinked using riboflavin and blue light exposure of different time intervals.
Growth factor release. To understand the ability of growth factors to be liberated from crosslinked collagen, human recombinant EGF (Peprotech) was incorporated within collagen gels during gelation. A neutralized 3% collagen solution with 0.25 mM riboflavin was exposed to blue light (˜458 nm) at 60 mW/cm^2 for 20 seconds. The formed gel was then cut into cylindrical discs and placed in a PBS solution with or without 0.1% versus 0.2% collagenase at 37° C. on a shaker. The solution was then sampled at intervals starting at 2 hours to 120 hours. An ELISA kit was then used to evaluate the concentration of released EGF in the solution.

NGF receptor = assay: Ellipsometry of soluble NGF receptor binding to NGF-coupled collagen surfaces; details: NGF photochemically coupled to collagen compared to physisorbed NGF
Source text: V-CXL binds growth factors directly to collagen. V-CXL was used to bind EGF and NGF growth factors directly to collagen. Fluorometry (FIG. 3), surface plasmon resonance (FIG. 4), ellipsometry (FIG. 5), and ELISA (FIG. 6) were used to monitor and compare the chemical coupling versus physical adsorption of NGF and EGF to collagen surfaces. In these experiments, collagen was first chemically immobilized to either gold, glass, or polystyrene surfaces (depending on the method being used), followed by V-CXL-mediated coupling of either EGF or NGF (or their fluorescein-isothiocyanate (FITC)-labeled conjugates) to the collagen coating alone or physical adsorption of growth factor to collagen from aqueous solution.
Exposure of NGF to blue light in the presence of riboflavin led to a step-increase in the layer thickness of the collagen-coated gold wafer.

Compound: Cc1cc2nc3c(=O)[nH]c(=O)nc-3n(C[C@H](O)[C@H](O)[C@H](O)CO)c2cc1C [riboflavin]
- % living hMSCs (viability) [1]: greater than 90%

Compound: epidermal growth factor [EGF]
- wound area by fluorescein staining vs topical EGF alone or no treatment ([2]; 24 hours, 0.01 mg/ml EGF, 0.1 mg/ml riboflavin, blue light (~458 nm) 5 seconds): smaller; also recorded: greater wound area reduction
- reduction in wound area by fluorescein staining compared with controls ([2]; 24 hours, EGF-coupled corneas (0.025 mM riboflavin, 0.01 mg/mL EGF, 5 s blue light) vs topical EGF alone and no treatment, n=2): greater reduction in wound area
- wound area as % of the wound area in topical EGF-treated eyes ([2]; 24 hours, V-CXL: 0.025 mM riboflavin + 0.01 mg/mL EGF, 5 seconds blue light (~458 nm) at 60 mW/cm^2, n=2, ImageJ analysis): approximately 50%
- wound area as % of the wound area of untreated eyes ([2]; 24 hours, V-CXL: 0.025 mM riboflavin + 0.01 mg/mL EGF, 5 seconds blue light at 60 mW/cm^2, n=2, ImageJ analysis): approximately 35%
- signs of ocular intolerance (conjunctival injection, swelling, discharge, corneal toxicity) ([2]; eyes treated with EGF and riboflavin in the V-CXL reaction): No signs of ocular intolerance
- proliferation of senescent primary CECs [3]: greater proliferation
- EGF release from collagen gel ([4]; 0.1% versus 0.2% collagenase in PBS): increases the release in a dose-dependent manner; also recorded: accelerated in a dose-dependent manner
- EGF release from collagen gel ([4]; PBS alone, 3% collagen, 0.25 mM riboflavin, blue light 60 mW/cm^2 20 seconds): relatively slow release and slow

Compound: nerve growth factor [NGF]
- NGF receptor binding (change in relative layer thickness) (NGF receptor): higher amount of NGF receptor binding; also recorded: greater NGF binding
